Patent publication US4778912A, “Phospholipid derivatives” (priority 1985, dated 1988)
“Also recorded” adds a separate entry of the source. Read-outs that look alike come from different tables or passages of the source.

What was measured:
[1] = background, cited from earlier work
mouse = conditions: iv administration; cited from earlier work
platelet [2] = conditions: background; cited from earlier work
platelet [3] = assay: Effect on platelet: platelet aggregation (PAF activity) in platelet rich plasma; format: cell-based, male rabbit; conditions: Oryctolagus cuniculus, Table 5, rabbit PRP, 400,000 cells/1 μl, read-out: PAF activity EC50 (drug concentration causing 50% platelet aggregation)
Experimental: This PRP was further centrifuged at 3,000 r.p.m. for 15 minutes to obtain platelet poor plasma (PPP). By using this PPP, the PRP was diluted and so adjusted as to have a constant platelet concentration (400,000 cells/1 μl). […] Platelet aggregation was measured by using a platelet aggregometer (manufactured by Rika Denki Co. in Japan).

MM46 cells = assay: Antitumor action in C3H/He mice inoculated intraperitoneally with MM46 cells (life-span prolongation, 60-day survivors); format: in vivo; conditions: Table 2
Experimental: (i) C3H/He mice (a group consisting of five mice) were inoculated intraperitoneally with 1×10^4 MM46 cells per mouse, and each mouse was intraperitoneally given 0.25 mg of drug for consecutive 4 days, starting from the second day after the inoculation.
(ii) In the above test, each mouse was inoculated intraperitoneally with 1×10^5 MM46 cells and 0.25 mg of drug was given intraperitoneally to each mouse for consecutive 4 days, starting from the second day after the inoculation.
The assay was carried out under the same conditions as Test Example 2-i.

Sarcoma 180 cells = assay: Antitumor action in ICR mice inoculated intraperitoneally with Sarcoma 180 cells (life-span prolongation, 60-day survivors); format: in vivo
Experimental: The assay was carried out under the same conditions as Test Example 1-i.

tumor = conditions: background; cited from earlier work

SMILES	side effects and toxicity (in words) ([1]; listed as PAF)	fatal dose for a mouse (mouse)	platelet activating / platelet aggregation action (in words) (platelet [2])	EC50 (platelet [3]) [µM]	responders at 0.25 mg (MM46 cells; 1440 h, 1×10^4 MM46 cells, 0.25 mg/mouse ip, 4 days, read-out: 60th day: No. of survived mice/No. of tested mice (converted)) [%]	response vs control in vivo at 0.25 mg (MM46 cells; Mus musculus, ip, 1×10^4 MM46 cells ip, 0.25 mg/mouse ip for consecutive 4 days from second day, only mice surviving less than 60 days, read-out: Life-span prolongation ratio (T/C %)) [%]	side effects and toxicity (in words) [1]	life-span prolongation ratio compared with the control group (in words) (Sarcoma 180 cells; 1 mg/mouse, for its toxicity)	responders at 0.33 mg (Sarcoma 180 cells; Sarcoma-180, 1440 h, Table 1, 0.33 mg/mouse ip, three times, read-out: 60th day: No. of survived mice/No. of tested mice (converted)) [%]	response vs control in vivo at 0.33 mg (Sarcoma 180 cells; Table 1, 1×10^5 Sarcoma 180 cells ip, 0.33 mg/mouse ip, three times (1 hour, 1 day, 2 days after inoculation), only mice surviving less than 60 days, read-out: Life-span prolongation ratio (T/C %)) [%]	antitumor action (in words) (tumor)
CCCCCCCCCCCCCCCCCCOCC(COP(=O)([O-])OCC[N+](C)(C)C)OC(C)=O (stereo not drawn) [Compound (II)]	neutrophil-activating, tissue-impairing, vessel-permeability enhancing, blood-pressure lowering, heart function inhibiting, bronchoconstrictor and other actions; also recorded: toxicity for warm-blooded animals is very high	about 50 mg/kg	strong platelet aggregation action	–	–	–	–	–	–	–	–
CCCCCCCCCCCCCCCCCCOCC(COP(=O)([O-])OCC[N+](C)(C)C)OC (stereo not drawn) [Compound (III), reference compound]	–	–	possess a platelet activating action	30	0	155	both blood-pressure lowering and topically irritating actions are observed; also recorded: high degree of its toxicity	smaller life-span prolongation ratio than the control group	0	162	exhibit an antitumor action
